In patent publication US7763281B2, “Antihypertensive peptide and use thereof” (Da-Yeh University, priority 2007, dated 2010):
Like-named read-outs stand apart in the source and are kept apart here. Ends that are not written are not given here.

Legend:
[1] = tested on: spontaneously hypertensive rats (SHRs); assay: Change of SBP and DBP in SHRs by tail-cuff method after single oral administration; format: in vivo, rat; conditions: single oral dose 1 mg/kg BW
Method: Therefore, the antihypertensive activity of the aforementioned supernatant powder of the fermented dairy product were measured in SHRs and normotensive rats (Wistar-Kyoto rats, WKYs) to evaluate its potential applications to functional food for preventing hypertension. The male SHRs and male WKYs used in the present and following examples were purchased from National Laboratory Animal Center (Taipei, Taiwan) and fed with laboratory chow (Rodent laboratory chow 5001, Purina Co., USA). Blood pressures including SBP and DBP of 8- to 18-wk-old SHRs (body weight, 330-360 g) and 8- to 18-wk-old WKYs (body weight, 350-380 g) were measured by the tail-cuff method employing a tail-cuff detection system (Softron BP16; Softron, Tokyo, Japan). The antihypertensive activities of the test samples were evaluated by measuring the changes in SBP and DBP of SHRs and WKYs during 0-10 h after oral administration of respective samples.

[2] = tested on: spontaneously hypertensive rats (SHRs); conditions: cited from earlier work
[3] = format: in vitro ADME
Method: Briefly, the peptide was digested with a pepsin solution (pH 2.5) (EC 3.4.23.1; 1:10000; Sigma, USA) for 1.5 h at 37° C., followed by digestion with Corolase PP (pH 7.5) (pancreatic protease; Rohm, Darmstadt, German) for 2.5 h at 37° C. To remove the enzyme added, the digested peptide solution was filtered through a 3 kDa cut-off centrifugal filter (Microcon YM-3, 3 kDa NMWL, Millipore Co., USA) by centrifugation at 1,000×g for 10 min. The filtrate was then used in the analysis for peptide fragments by MALDI-TOF-MS (matrix-assisted laser desorption ionization-time of flight mass spectrometry).

KVLPVPQ [known peptide from casein hydrolysate (Maeno et al., 1996), synthetic comparator]
maximal decrease in SBP ([1]; at 3 h): 29.2±4.0 mmHg
maximal DBP decrease ([1]; at 4 h): 14.4±3.2 mmHg
decrease of SBP ([2]; single oral administration of 2 mg/kg BW, at 6 h (Maeno et al., 1996)): 31.5±5.6 mmHg

Val-Pro-Pro (VPP; Peptide derived from casein) [tripeptide derived from β-casein, synthesized and tested as positive control]
maximal DBP decrease ([1]; at 4 h): 18.0±2.1 mmHg
maximal SBP decrease ([1]; at 4 h): 26.3±3.2 mmHg
decrease of SBP ([2]; dose 1.6 mg/kg BW, at 6 h after oral administration (Nakamura et al., 1995)): 20 mmHg

VLSLSQPKVLPVPQKAVPQ [Val-Leu-Ser-Leu-Ser-Gln-Pro-Lys-Val-Leu-Pro-Val-Pro-Gln-Lys-Ala-Val-Pro-Gln]
peptide fragments after simulated gastro-intestinal digestion [3]: did not contain Lys-Val-Leu-Pro-Val-Pro (SEQ ID NO: 3) or Lys-Val-Leu-Pro-Val-Pro-Gln (SEQ ID NO: 4)

KVLPVP [known peptide from casein hydrolysate (Maeno et al., 1996), synthetic comparator]
maximal decrease in SBP ([1]; at 2 h): 27.8±3.3 mmHg
maximal decrease in DBP ([1]; at 5 h): 17.5±4.2 mmHg
